Measured values from patent publication US20230323279A1, “MUTANT ALGAE, METHOD OF PREPARATION AND APPLICATION THEREOF” (Reliance Industries Limited, priority 2022, published 2023).

Key:
Assay type in all cases: cell-based, Picochlorum
[1] = tested on: mutant algae (NCAR-1 and NCAR-2); experiment: Growth of algae culture (OD at 750 nm); settings: for growth of mutant algae as compared to wild type of the algae: about 2 ppm and about 5 ppm, FIGS. 7-9
Excerpt: (§1) FIG. 4 A) illustrates a plot describing comparative growth of wild type of the algae and mutant algae (NCAR-1 and NCAR-2) at different concentrations of Niclosamide; and B) depicts an image of cultures showing no growth of wild type algae (WT) and growth of mutant algae (NCAR-1 and NCAR-2) at 10 ppm of Niclosamide, respectively.

[2] = tested on: mutant algae (NCAR-1 and NCAR-2); experiment: Volumetric productivity (AFDW mg/L/day); settings: about 2 ppm and about 5 ppm; for volumetric productivity of mutant algae as compared to wild type of the algae: FIGS. 10-12
Excerpt: The term ‘productivity’ as used herein refers to amount of product the algae can produce under defined conditions. Productivity can be measured in grams of dry weight of algae. Alternatively, productivity can be measured in terms of the rate of production of a desirable product or product(s) such as lipid, protein, carbohydrate and/or any other biomolecule produced by the algae. The term ‘volumetric productivity’ refers to increase in biomass weight of algae/L/day.
Thus, clearly establishing that the mutant algae is resistant to salicylanilide based drug, such as Niclosamide as compared to wild type of the algae.

WT cells = experiment: Killing of WT cells on EMS exposure (mutagenesis); settings: 0.6 M, about 1 hours, about 1 × 10^8 /ml cells
Description: About 1 × 10^8 /ml WT cells were treated with 0.6 M EMS for about 1 hours. […] The alive cells were allowed to recover in dark overnight and then in low light for about a week. Upon recovering the mutant algae population was exposed to about 0.5 ppm of Niclosamide and enriched in presence of Niclosamide for several generations. As the growth rate in the presence of Niclosamide increased, the selection pressure was increased to about 1 ppm and then to about 2 ppm of Niclosamide, respectively. The mutant pool was grown in presence of about 2 ppm Niclosamide (for about 300 generations, about 1 year) till the growth rates became constant. At this stage, FACS sorting of the Niclosamide resistant mutant pool was performed to get individual Niclosamide resistant mutant algae. About 100 individual mutants were isolated and were further checked for growth in the presence of about 2 ppm Niclosamide. The list was narrowed down to about 10 stable mutants after about 2 rounds of growth screening. Finally, after about 10 rounds of repeated growth screening in the presence of about 2 ppm Niclosamide, stable mutant algae (NCAR-1 & NCAR-2) were selected, based on the stable drug resistant phenotype and consistent growth & productivity.

mutant algae NCAR-1 = experiment: Total intracellular ATP, bioluminescence (luciferase) assay
Description: (§2) Total intracellular ATP levels in wild type algae and the mutant algae were measured using molecular probes bioluminescence assay kit. The assay is based on luciferase’s requirement for ATP in producing light (emission maximum of about 560 nm at pH 7.8) from the reaction
(§3) Niclosamide was added to mid log cells (OD750 at about 0.3) of both wild type algae and mutant algae and samples (OD = 10^8 cells) were collected after about 12 hours for ATP measurement. About 1 ppm of Oligomycin A (inhibitor of ATP synthase) was used as positive control to inhibit ATP synthesis. intracellular ATP concentration in mutant algae and wild type of the algae in presence of Niclosamide was described in Table 3.

mutant algae NCAR-2 = experiment: as above
Description: as §2, §3

wild type algae (WT) = experiment: as above; settings: about 12 hours; for ATP conc. / bioluminescence reading, Average / bioluminescence reading, replicate 1 / bioluminescence reading, replicate 2: 1 ppm drug; for ATP depletion / lower ATP levels: about 1 ppm drug
Description: as §2, §3

[3] = tested on: wild type of the algae (WT); experiment: Growth of algae culture (OD at 750 nm)
Excerpt: FIG. 1 A) illustrates a plot describing no growth of wild type of the algae (WT) in presence of Niclosamide (OD at 750 nm); and B) depicts an image of cultures showing no growth of wild type algae in presence of Niclosamide.
as §1

[4] = tested on: mutant algae (NCAR-1 and NCAR-2); experiment: Photosynthetic efficiency/health; settings: about 1 ppm, about 2 ppm and about 5 ppm, FIG. 6
Excerpt: FIG. 6 illustrate plots describing photosynthetic efficiency/health of- A) wild type of the algae (WT); B) mutant algae (NCAR-1); and C) mutant algae (NCAR-2) at different concentrations of Niclosamide (last day is 7th Day).
The improved photosynthetic efficiency of the mutant algae explicitly implies resistance of the mutant algae to salicylanilide based drug, such as Niclosamide and that the wild type of the algae is not resistant to the salicylanilide based drug.

[5] = NCAR-1, 1 ppm drug, about 12 hours
[6] = NCAR-2, 1 ppm drug, about 12 hours

Compound	growth of mutant algae as compared to wild type of the algae [1]	volumetric productivity of mutant algae as compared to wild type of the algae [2]	ATP conc. (wild type algae (WT))	bioluminescence reading, Average (wild type algae (WT))	bioluminescence reading, replicate 1 (wild type algae (WT))	bioluminescence reading, replicate 2 (wild type algae (WT))	ATP depletion / lower ATP levels (wild type algae (WT))	also measured
Cc1cc(C(C#N)c2ccc(Cl)cc2)c(Cl)cc1NC(=O)c1cc(I)cc(I)c1O (stereo not shown) [Closantel, closantel]	improved growth	improved volumetric productivity						
CCOS(C)(=O)=O [EMS, ethyl methanesulfonate]								killing of the WT cells (WT cells): about 50%
O=C(Nc1ccc([N+](=O)[O-])cc1Cl)c1cc(Cl)ccc1O [Niclosamide, niclosamide]	improved growth	improved volumetric productivity	~ 28.80 nM	174.5	204	145	about 90%	ATP conc. (mutant algae NCAR-1; [5]): 125.68 nM; bioluminescence reading, Average (mutant algae NCAR-1; [5]): 761.5; bioluminescence reading, replicate 1 (mutant algae NCAR-1; [5]): 835; bioluminescence reading, replicate 2 (mutant algae NCAR-1; [5]): 688; ATP depletion (mutant algae NCAR-1; NCAR-1, after about 12 hours of drug addition): about 50%; ATP conc. (mutant algae NCAR-2; [6]): 138.55 nM; bioluminescence reading, Average (mutant algae NCAR-2; [6]): 839.5; bioluminescence reading, replicate 1 (mutant algae NCAR-2; [6]): 890; bioluminescence reading, replicate 2 (mutant algae NCAR-2; [6]): 789; ATP depletion (mutant algae NCAR-2; NCAR-2, after about 12 hours of drug addition): about 50%; growth of wild type of the algae ([3]; 10 ppm, FIG. 4B): no growth; growth of wild type of the algae (OD at 750 nm) ([3]; in presence of drug, FIG. 1): no growth; growth of mutant algae ([1]; 10 ppm, FIG. 4B): evident growth; volumetric productivity of mutant algae ([2]; about 1 ppm, FIG. 5): equal to or greater than the volumetric productivity of the wild type of the algae in absence of Niclosamide; photosynthetic efficiency/health of mutant algae as compared to wild type of the algae [4]: improved photosynthetic efficiency/health
CC[C@H]1/C=C/C=C/C[C@@H](C)[C@H](O)[C@@](C)(O)C(=O)[C@@H](C)[C@H](O)[C@@H](C)C(=O)[C@@H](C)[C@H](O)[C@@H](C)/C=C/C(=O)O[C@@H]2[C@H](C)[C@H](CC1)O[C@]1(CC[C@H](C)[C@H](C[C@@H](C)O)O1)[C@H]2C [Oligomycin, Oligomycin A]			178.49 nM	1081.5	1181	982	about 40%	
O=C(Nc1cc(Cl)cc(Cl)c1O)c1c(O)c(Cl)cc(Cl)c1Cl [Oxyclozanide, oxyclozanide]	improved growth	improved volumetric productivity						
O=C(Nc1ccc(Oc2ccc(Cl)cc2)c(Cl)c1)c1cc(I)cc(I)c1O [Rafoxanide, rafoxanide]	improved growth	improved volumetric productivity						
